For the test, the target named is T1, human MGL from HeLa cells (Homo sapiens, UniProt Q99685).
T1 construct: combining endogenously expressed MGL from HeLa cells with test compounds; endogenous in cells; host or cells: HeLa cells / cell homogenates
T1 sequence (Q99685 1-303): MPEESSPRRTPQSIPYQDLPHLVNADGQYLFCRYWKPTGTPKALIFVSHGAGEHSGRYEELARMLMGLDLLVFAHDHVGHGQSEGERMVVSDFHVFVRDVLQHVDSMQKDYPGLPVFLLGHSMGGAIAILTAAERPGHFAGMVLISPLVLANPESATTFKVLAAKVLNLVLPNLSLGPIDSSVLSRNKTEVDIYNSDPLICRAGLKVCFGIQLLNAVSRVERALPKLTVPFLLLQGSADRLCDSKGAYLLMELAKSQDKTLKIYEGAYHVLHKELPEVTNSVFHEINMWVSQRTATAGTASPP
Nature of the test: In vitro MGL activity assay: [glycerol-1,3-3H]-oleyl glycerol cleavage by MGL from HeLa cells. Type of test: biochemical. As to conditions: 300 nM [Glycerol-1,3-3H]-oleyl glycerol, one hour incubation. The text has this:
MGL is the predominant hydrolase in HeLa cells/cell homogenates.
As to `C[C@H]1c2nn(C)c(-c3cc(F)c(F)c(F)c3)c2CCN1C(=O)c1noc2ccccc12` [Example 215, (S)-Benzo[d]isoxazol-3-yl(2,7-dimethyl-3-(3,4,5-trifluorophenyl)-2,4,5,7-tetrahydro-6H-pyrazolo[3,4-c]pyridin-6-yl)methanone], the IC50 stood at 3.17 nM.

`C[C@H]1c2nn(C)c(-c3cc(F)c(F)c(F)c3)c2CCN1C(=O)c1nccc2[nH]ccc12` [Example 216, (S)-(2,7-Dimethyl-3-(3,4,5-trifluorophenyl)-2,4,5,7-tetrahydro-6H-pyrazolo[3,4-c]pyridin-6-yl)(1H-pyrrolo[3,2-c]pyridin-4-yl)methanone] returned a concentration for half-maximal inhibition (IC50) of 26.2 nM.

In turn, `C[C@H]1c2nn(C)c(-c3cc(F)c(F)c(F)c3)c2CCN1C(=O)c1nccc2c1ccn2C` [Example 217, (S)-(2,7-Dimethyl-3-(3,4,5-trifluorophenyl)-2,4,5,7-tetrahydro-6H-pyrazolo[3,4-c]pyridin-6-yl)(1-methyl-1H-pyrrolo[3,2-c]pyridin-4-yl)methanone] registered an IC50 of 5.07 nM.

With `C[C@H]1c2nn(C)c(-c3cc(F)c(F)c(F)c3)c2CCN1C(=O)c1c[nH]c2ccncc12` [Example 218, (S)-(2,7-Dimethyl-3-(3,4,5-trifluorophenyl)-2,4,5,7-tetrahydro-6H-pyrazolo[3,4-c]pyridin-6-yl)(1H-pyrrolo[3,2-c]pyridin-3-yl)methanone], half-maximal inhibition (IC50) required 35.2 nM.

`C[C@H]1c2nn(C)c(-c3cc(F)c(F)c(F)c3)c2CCN1C(=O)c1cn(C)c2ccncc12` [Example 219, (S)-(2,7-Dimethyl-3-(3,4,5-trifluorophenyl)-2,4,5,7-tetrahydro-6H-pyrazolo[3,4-c]pyridin-6-yl)(1-methyl-1H-pyrrolo[3,2-c]pyridin-3-yl)methanone]: it took 28.6 nM to reach half-maximal inhibition (IC50). The IC50 values of the last two compounds are within 1.5-fold of each other.

As to `C[C@H]1c2nn(C)c(-c3cc(F)c(F)c(F)c3)c2CCN1C(=O)c1cn(C)c2cccnc12` [Example 220, (S)-(2,7-Dimethyl-3-(3,4,5-trifluorophenyl)-2,4,5,7-tetrahydro-6H-pyrazolo[3,4-c]pyridin-6-yl)(1-methyl-1H-pyrrolo[3,2-b]pyridin-3-yl)methanone], the IC50 came to 130 nM.

Take `C[C@H]1c2nn(C)c(-c3cc(F)c(F)c(F)c3)c2CCN1C(=O)c1cn(C)c2cnccc12` [Example 221, (S)-(2,7-Dimethyl-3-(3,4,5-trifluorophenyl)-2,4,5,7-tetrahydro-6H-pyrazolo[3,4-c]pyridin-6-yl)(1-methyl-1H-pyrrolo[2,3-c]pyridin-3-yl)methanone]: the IC50 came to 78.9 nM.

In turn, `C[C@H]1c2nn(C)c(-c3cc(F)c(F)c(F)c3)c2CCN1C(=O)c1cc2cccnc2n1C` [Example 222, (S)-(2,7-Dimethyl-3-(3,4,5-trifluorophenyl)-2,4,5,7-tetrahydro-6H-pyrazolo[3,4-c]pyridin-6-yl)(1-methyl-1H-pyrrolo[2,3-b]pyridin-2-yl)methanone] had an IC50 of 64.7 nM.

Consider `C[C@H]1c2nn(C)c(-c3cc(F)c(F)c(F)c3)c2CCN1C(=O)c1cn(C)c2ncccc12` [Example 223, (S)-(2,7-Dimethyl-3-(3,4,5-trifluorophenyl)-2,4,5,7-tetrahydro-6H-pyrazolo[3,4-c]pyridin-6-yl)(1-methyl-1H-pyrrolo[2,3-b]pyridin-3-yl)methanone], for which the IC50 was found to be 87.6 nM.

`C[C@H]1c2nn(C)c(-c3cc(F)c(F)c(F)c3)c2CCN1C(=O)c1cncc2c1ccn2C` [Example 224, (S)-(2,7-Dimethyl-3-(3,4,5-trifluorophenyl)-2,4,5,7-tetrahydro-6H-pyrazolo[3,4-c]pyridin-6-yl)(1-methyl-1H-pyrrolo[2,3-c]pyridin-4-yl)methanone] yielded an IC50 of 2.55 nM. This IC50 lies about 34-fold lower than the previous one.

Take `C[C@H]1c2nn(C)c(-c3cc(F)c(F)c(F)c3)c2CCN1C(=O)c1ccnc2c1ccn2C` [Example 225, (S)-(2,7-Dimethyl-3-(3,4,5-trifluorophenyl)-2,4,5,7-tetrahydro-6H-pyrazolo[3,4-c]pyridin-6-yl)(1-methyl-1H-pyrrolo[2,3-b]pyridin-4-yl)methanone]: half-maximal inhibition (IC50) was put at 0.64 nM. Against the preceding compound, the IC50 is about 4-fold lower.

As for `C[C@H]1c2nn(C)c(-c3cc(F)c(F)c(F)c3)c2CCN1C(=O)c1cnc2c(ccn2C)c1` [Example 226, (S)-(2,7-Dimethyl-3-(3,4,5-trifluorophenyl)-2,4,5,7-tetrahydro-6H-pyrazolo[3,4-c]pyridin-6-yl)(1-methyl-1H-pyrrolo[2,3-b]pyridin-5-yl)methanone], the half-maximal inhibitory concentration (IC50) amounted to 16.2 nM.

`C[C@H]1c2nn(C)c(-c3cc(F)c(F)c(F)c3)c2CCN1C(=O)c1cccn2nccc12` [Example 227, (S)-(2,7-Dimethyl-3-(3,4,5-trifluorophenyl)-2,4,5,7-tetrahydro-6H-pyrazolo[3,4-c]pyridin-6-yl)(pyrazolo[1,5-a]pyridin-4-yl)methanone] displayed an IC50 of 9.51 nM.

Turning to `C[C@H]1c2nn(C)c(-c3cc(F)c(F)c(F)c3)c2CCN1C(=O)c1ccn2nccc2c1` [Example 228, (S)-(2,7-Dimethyl-3-(3,4,5-trifluorophenyl)-2,4,5,7-tetrahydro-6H-pyrazolo[3,4-c]pyridin-6-yl)(pyrazolo[1,5-a]pyridin-5-yl)methanone], it took 48.1 nM to reach half-maximal inhibition (IC50). This IC50 lies about 5.1-fold higher than the previous one.

Regarding `C[C@H]1c2nn(C)c(-c3cc(F)c(F)c(F)c3)c2CCN1C(=O)c1cnn2ccncc12` [Example 229, (S)-(2,7-Dimethyl-3-(3,4,5-trifluorophenyl)-2,4,5,7-tetrahydro-6H-pyrazolo[3,4-c]pyridin-6-yl)(pyrazolo[1,5-a]pyrazin-3-yl)methanone], 40.7 nM corresponded to half-maximal inhibition (IC50).

`C[C@H]1c2nn(C)c(-c3cc(F)c(F)c(F)c3)c2CCN1C(=O)c1nn(C)c2ncccc12` [Example 230, (S)-(2,7-Dimethyl-3-(3,4,5-trifluorophenyl)-2,4,5,7-tetrahydro-6H-pyrazolo[3,4-c]pyridin-6-yl)(1-methyl-1H-pyrazolo[3,4-b]pyridin-3-yl)methanone] came in with an IC50 of 23 nM.

On to `C[C@H]1c2nn(C)c(-c3cc(F)c(F)c(F)c3)c2CCN1C(=O)c1cnc2c(cnn2C)c1` [Example 231, (S)-(2,7-Dimethyl-3-(3,4,5-trifluorophenyl)-2,4,5,7-tetrahydro-6H-pyrazolo[3,4-c]pyridin-6-yl)(1-methyl-1H-pyrazolo[3,4-b]pyridin-5-yl)methanone], for which the IC50 stood at 124 nM.

Consider `C[C@H]1c2nn(C(F)F)c(-c3cc(F)c(F)c(F)c3)c2CCN1C(=O)c1ccc2ncccc2c1` [Example 232, (S)-(2-(Difluoromethyl)-7-methyl-3-(3,4,5-trifluorophenyl)-2,4,5,7-tetrahydro-6H-pyrazolo[3,4-c]pyridin-6-yl)(quinolin-6-yl)methanone], for which half-maximal inhibition (IC50) was put at 5.57 nM. This IC50 is about 22-fold lower than that of the compound before.

Take `C[C@@H]1c2nn(C(F)F)c(-c3cc(F)c(F)c(F)c3)c2CCN1C(=O)c1ccc2ncccc2c1` [Example 233, (R)-(2-(Difluoromethyl)-7-methyl-3-(3,4,5-trifluorophenyl)-2,4,5,7-tetrahydro-6H-pyrazolo[3,4-c]pyridin-6-yl)(quinolin-6-yl)methanone]: the IC50 amounted to 550 nM.

Compound `C[C@H]1c2nn(C)c(-c3cc(F)c(F)c(F)c3)c2CCN1C(=O)c1ccc2ncccc2c1` [Example 234, (S)-(2,7-Dimethyl-3-(3,4,5-trifluorophenyl)-2,4,5,7-tetrahydro-6H-pyrazolo[3,4-c]pyridin-6-yl)(quinolin-6-yl)methanone] came in with an IC50 of 4.71 nM.

The values above are taken from patent publication US11820766B2, “Monoacylglycerol lipase modulators” (Janssen Pharmaceutica NV, priority 2018, dated 2023).
